Measurements: PMC10302047, “Structure–Activity Relationship Studies of Indolglyoxyl-Polyamine Conjugates as Antimicrobials and Antibiotic Potentiators” (Pharmaceuticals, 2023)
Converted amounts (≈) assume the structure as drawn.

Legend:
E. coli ATCC 25922 = test: Antimicrobial susceptibility (MIC), E. coli; assay type: cell-based; settings: Escherichia coli, ATCC25922, mean (n = 3)
Protocol: (§1) The susceptibility of bacterial strains S. aureus (ATCC 25923), E. coli (ATCC 25922) and P. aeruginosa (ATCC 27853) to antibiotics and compounds was determined according to previously reported protocols. Additional antimicrobial evaluation against MRSA (ATCC 43300) and C. albicans (ATCC 90028) was undertaken at the Community for Open Antimicrobial Drug Discovery at The University of Queensland (Australia) according to their standard protocols as reported previously.

S. aureus ATCC 25923 = test: Antimicrobial susceptibility (MIC), S. aureus; assay type: cell-based, Staphylococcus aureus; settings: Staphylococcus aureus, ATCC25923; S. aureus ATCC 25923; mean (n = 3)
Protocol: as §1

human red blood cells = test: Hemolytic assay; assay type: cell-based; settings: mean (n = 2)
Protocol: Hemolysis assays were conducted according to previously reported protocols.

P. aeruginosa ATCC 27853 [1] = test: Antibiotic potentiation (MIC of antibiotics in the presence of synergizing compounds), P. aeruginosa; assay type: cell-based, Pseudomonas aeruginosa; settings: concentration required to restore doxycycline activity at 2 µg/mL (4.5 µM) against P. aeruginosa ATCC 27853
C. albicans ATCC 90028 = test: Antifungal susceptibility (MIC), C. albicans; assay type: cell-based; settings: Candida albicans, ATCC90028, mean (n = 2)
Protocol: as §1

[2] = Cytotoxicity assay HEK293; assay type: cell-based, human; settings: human, HEK293 cells, mean (n = 2), read-out: Cyto. IC50 (concentration of compound at 50% cytotoxicity)
Protocol: Cytotoxicity assays were conducted according to previously reported protocols.

MRSA ATCC 43300 = test: Antimicrobial susceptibility (MIC), MRSA; assay type: cell-based; settings: Staphylococcus aureus; MRSA ATCC 43300; mean (n = 2); read-out: MIC MRSA
Protocol: as §1

P. aeruginosa ATCC 27853 [3] = test: Antimicrobial susceptibility (MIC), P. aeruginosa; assay type: cell-based; settings: Pseudomonas aeruginosa, ATCC27853, mean (n = 3), read-out: MIC P. a
Protocol: as §1

Row | SMILES | MIC (E. coli ATCC 25922) | MIC (S. aureus ATCC 25923) | Hem. HC10 (concentration of compound at 10% hemolytic activity) (human red blood cells) | Conc (µM) for Potentiation of doxycycline (P. aeruginosa ATCC 27853 [1]) | MIC (C. albicans ATCC 90028) | IC50 [2] | MIC (MRSA ATCC 43300) | MIC (P. aeruginosa ATCC 27853 [3])
1 | O=C(NCCCNCCCCCCCCCCNCCCNC(=O)C(=O)c1c[nH]c2ccccc12)C(=O)c1c[nH]c2ccccc12.O=C(O)C(F)(F)F.O=C(O)C(F)(F)F [Compound 17d, N^1,N^10-Bis(3-(2-(1H-indol-3-yl)-2-oxoacetamido)propyl)decane-1,10-diaminium 2,2,2-trifluoroacetate] | 117 µM | 14.6 µM | >37 µM | 58 µM | 37 µM | 4.9 µM | 18.7 µM | 117 µM
2 | O=C(NCCCNCCCCCCCCCCNCCCNC(=O)C(=O)c1c[nH]c2ccc(Br)cc12)C(=O)c1c[nH]c2ccc(Br)cc12.O=C(O)C(F)(F)F.O=C(O)C(F)(F)F [Compound 18d, N^1,N^10-Bis(3-(2-(5-bromo-1H-indol-3-yl)-2-oxoacetamido)propyl)decane-1,10-diaminium 2,2,2-trifluoroacetate] | 98 µM | 6.16 µM | >32 µM | 25 µM | 32 µM | 16 µM | 7.88 µM | 200 µM
3 | O=C(NCCCNCCCCCCCCCCNCCCNC(=O)C(=O)c1c[nH]c2c(F)cccc12)C(=O)c1c[nH]c2c(F)cccc12.O=C(O)C(F)(F)F.O=C(O)C(F)(F)F [Compound 21d, N^1,N^10-Bis(3-(2-(7-fluoro-1H-indol-3-yl)-2-oxoacetamido)propyl)decane-1,10-diaminium 2,2,2-trifluoroacetate] | 6.25 µM | 3.12 µM | >36 µM | 100 µM | 36 µM | 4.7 µM | 4.48 µM | > 200 µM
4 | COc1cccc2c(C(=O)C(=O)NCCCNCCCCCCCCCCNCCCNC(=O)C(=O)c3c[nH]c4c(OC)cccc34)c[nH]c12.O=C(O)C(F)(F)F.O=C(O)C(F)(F)F [Compound 22d, N^1,N^10-Bis(3-(2-(7-methoxy-1H-indol-3-yl)-2-oxoacetamido)propyl)decane-1,10-diaminium 2,2,2-trifluoroacetate] | 50 µM | 25 µM | 8.4 µM | 400 µM | 17 µM | > 35 µM | ≤ 0.27 µM | 800 µM
5 | O=C(NCCCNCCCCCCCCCCCCNCCCNC(=O)C(=O)c1c[nH]c2ccc(Br)cc12)C(=O)c1c[nH]c2ccc(Br)cc12.O=C(O)C(F)(F)F.O=C(O)C(F)(F)F [Compound 18e, N^1,N^12-Bis(3-(2-(5-bromo-1H-indol-3-yl)-2-oxoacetamido)propyl)dodecane-1,12-diaminium 2,2,2-trifluoroacetate] | 24 µM | 5.99 µM | 20 µM | 24 µM | 31 µM | 8.6 µM | 3.84 µM | 96 µM
6 | O=C(NCCCNCCCCCCCNCCCNC(=O)C(=O)c1c[nH]c2c(F)cccc12)C(=O)c1c[nH]c2c(F)cccc12.O=C(O)C(F)(F)F.O=C(O)C(F)(F)F [Compound 21b, N^1,N^7-Bis(3-(2-(7-fluoro-1H-indol-3-yl)-2-oxoacetamido)propyl)heptane-1,7-diaminium 2,2,2-trifluoroacetate] | > 200 µM | 7.3 µM | >38 µM | 7.3 µM | 38 µM | 11 µM | 18.8 µM | > 200 µM
7 | O=C(NCCCNCCCCCCCNCCCNC(=O)C(=O)c1c[nH]c2ccc(Br)cc12)C(=O)c1c[nH]c2ccc(Br)cc12.O=C(O)C(F)(F)F.O=C(O)C(F)(F)F [Compound 18b, N^1,N^7-Bis(3-(2-(5-bromo-1H-indol-3-yl)-2-oxoacetamido)propyl)heptane-1,7-diaminium 2,2,2-trifluoroacetate] | 51 µM | 6.4 µM | >33 µM | 12.9 µM | 16 µM | 13 µM | 4.1 µM | 51 µM
8 | O=C(NCCCNCCCCCCCCNCCCNC(=O)C(=O)c1c[nH]c2ccccc12)C(=O)c1c[nH]c2ccccc12 [Compound 17c] | 12.5 µM (≈ 7.51 µg/mL) | 25 µM (≈ 15 µg/mL) | >39 µM | 50 µM | > 39 µM | 10 µM | 39 µM (≈ 23.4 µg/mL) | 100 µM (≈ 60.1 µg/mL)
9 | COc1ccc2[nH]cc(C(=O)C(=O)NCCCNCCCCCCCCCCNCCCNC(=O)C(=O)c3c[nH]c4ccc(OC)cc34)c2c1.O=C(O)C(F)(F)F.O=C(O)C(F)(F)F [Compound 19d, N^1,N^10-Bis(3-(2-(5-methoxy-1H-indol-3-yl)-2-oxoacetamido)propyl)decane-1,10-diaminium 2,2,2-trifluoroacetate] | 50 µM | 12.5 µM | >35 µM | >200 µM | 35 µM | 6.8 µM | 17.4 µM | > 200 µM
10 | O=C(NCCCNCCCCCCNCCCNC(=O)C(=O)c1c[nH]c2ccc(Br)cc12)C(=O)c1c[nH]c2ccc(Br)cc12.O=C(O)C(F)(F)F.O=C(O)C(F)(F)F [Compound 18a, N^1,N^6-Bis(3-(2-(5-bromo-1H-indol-3-yl)-2-oxoacetamido)propyl)hexane-1,6-diaminium 2,2,2-trifluoroacetate] | 6.25 µM | 1.56 µM | >33 µM | 6.5 µM | 16.7 µM | 8.9 µM | 4.17 µM | 50 µM
11 | COc1ccc2[nH]cc(C(=O)C(=O)NCCCNCCCCCCCCCCCCNCCCNC(=O)C(=O)c3c[nH]c4ccc(OC)cc34)c2c1 [Compound 19e] | 100 µM (≈ 71.7 µg/mL) | 12.5 µM (≈ 8.96 µg/mL) | >34 µM | >200 µM | 34 µM (≈ 24.4 µg/mL) | 8.6 µM | 34 µM (≈ 24.4 µg/mL) | > 200 µM
12 | COc1cccc2c(C(=O)C(=O)NCCCNCCCCCCCNCCCNC(=O)C(=O)c3c[nH]c4c(OC)cccc34)c[nH]c12.O=C(O)C(F)(F)F.O=C(O)C(F)(F)F [Compound 22b, N^1,N^7-Bis(3-(2-(7-methoxy-1H-indol-3-yl)-2-oxoacetamido)propyl)heptane-1,7-diaminium 2,2,2-trifluoroacetate] | 200 µM | 25 µM | >37 µM | 100 µM | > 37 µM | 8.9 µM | > 37 µM | 800 µM
13 | COc1ccc2[nH]cc(C(=O)C(=O)NCCCNCCCCCCCNCCCNC(=O)C(=O)c3c[nH]c4ccc(OC)cc34)c2c1.O=C(O)C(F)(F)F.O=C(O)C(F)(F)F [Compound 19b, N^1,N^7-Bis(3-(2-(5-methoxy-1H-indol-3-yl)-2-oxoacetamido)propyl)heptane-1,7-diaminium 2,2,2-trifluoroacetate] | > 200 µM | 57 µM | >37 µM | 114 µM | 37 µM | > 37 µM | 37 µM | > 200 µM
14 | O=C(NCCCNCCCCCCCCNCCCNC(=O)C(=O)c1c[nH]c2ccc(Br)cc12)C(=O)c1c[nH]c2ccc(Br)cc12.O=C(O)C(F)(F)F.O=C(O)C(F)(F)F [Compound 18c, N^1,N^8-Bis(3-(2-(5-bromo-1H-indol-3-yl)-2-oxoacetamido)propyl)octane-1,8-diaminium 2,2,2-trifluoroacetate] | > 200 µM | 25 µM | >32 µM | >200 µM | 32 µM | 18 µM | 8.1 µM | > 200 µM
15 | O=C(NCCCNCCCCCCCCNCCCNC(=O)C(=O)c1c[nH]c2c(F)cccc12)C(=O)c1c[nH]c2c(F)cccc12.O=C(O)C(F)(F)F.O=C(O)C(F)(F)F [Compound 21c, N^1,N^8-Bis(3-(2-(7-fluoro-1H-indol-3-yl)-2-oxoacetamido)propyl)octane-1,8-diaminium 2,2,2-trifluoroacetate] | > 200 µM | 29 µM | >37 µM | 58 µM | > 37 µM | 9.2 µM | 18.5 µM | > 200 µM
16 | COc1ccc2[nH]cc(C(=O)C(=O)NCCCNCCCCCCCCNCCCNC(=O)C(=O)c3c[nH]c4ccc(OC)cc34)c2c1 [Compound 19c] | > 100 µM | > 100 µM | 26 µM | 25 µM | 36 µM (≈ 23.8 µg/mL) | 18 µM | > 36 µM | > 100 µM
